Laboratory results taken from patent US9120804B2, “8-substituted 2-amino-[1,2,4] triazolo [1, 5-A] pyrazines as Syk tryrosine kinase inhibitors and GCN2 serin kinase inhibitors” (Merck Patent GmbH, priority 2012, dated 2015).
pIC50: −log10 of the molar value. Where a name gives a salt, the structure may show the parent alone.

How the values were obtained:
GCN2 = GCN2 (Homo sapiens, UniProt Q9P2K8); test: GCN2 enzyme assay; type: biochemical
SYK = biological target: T1, SYK (Homo sapiens, UniProt P43405); test: SYK flash plate assay (enzyme assay); type: biochemical
T1 construct: 2.5 nM SYK, 400 nM Biotin-Aha-Aha-KEDPDYEWPSAKK
Outline: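 Radiometric Flashplate format: biotinylated peptide substrate (400 nM) and 33P-labelled ATP (10 μM) react with 2.5 nM enzyme for 1 hour at 30 °C in Hepes buffer, pH 7.5. After EDTA quench and washing, counts are taken; staurosporine defines non-specific signal, and IC50 values are derived.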

GCN2, sequence (Q9P2K8 whole entry): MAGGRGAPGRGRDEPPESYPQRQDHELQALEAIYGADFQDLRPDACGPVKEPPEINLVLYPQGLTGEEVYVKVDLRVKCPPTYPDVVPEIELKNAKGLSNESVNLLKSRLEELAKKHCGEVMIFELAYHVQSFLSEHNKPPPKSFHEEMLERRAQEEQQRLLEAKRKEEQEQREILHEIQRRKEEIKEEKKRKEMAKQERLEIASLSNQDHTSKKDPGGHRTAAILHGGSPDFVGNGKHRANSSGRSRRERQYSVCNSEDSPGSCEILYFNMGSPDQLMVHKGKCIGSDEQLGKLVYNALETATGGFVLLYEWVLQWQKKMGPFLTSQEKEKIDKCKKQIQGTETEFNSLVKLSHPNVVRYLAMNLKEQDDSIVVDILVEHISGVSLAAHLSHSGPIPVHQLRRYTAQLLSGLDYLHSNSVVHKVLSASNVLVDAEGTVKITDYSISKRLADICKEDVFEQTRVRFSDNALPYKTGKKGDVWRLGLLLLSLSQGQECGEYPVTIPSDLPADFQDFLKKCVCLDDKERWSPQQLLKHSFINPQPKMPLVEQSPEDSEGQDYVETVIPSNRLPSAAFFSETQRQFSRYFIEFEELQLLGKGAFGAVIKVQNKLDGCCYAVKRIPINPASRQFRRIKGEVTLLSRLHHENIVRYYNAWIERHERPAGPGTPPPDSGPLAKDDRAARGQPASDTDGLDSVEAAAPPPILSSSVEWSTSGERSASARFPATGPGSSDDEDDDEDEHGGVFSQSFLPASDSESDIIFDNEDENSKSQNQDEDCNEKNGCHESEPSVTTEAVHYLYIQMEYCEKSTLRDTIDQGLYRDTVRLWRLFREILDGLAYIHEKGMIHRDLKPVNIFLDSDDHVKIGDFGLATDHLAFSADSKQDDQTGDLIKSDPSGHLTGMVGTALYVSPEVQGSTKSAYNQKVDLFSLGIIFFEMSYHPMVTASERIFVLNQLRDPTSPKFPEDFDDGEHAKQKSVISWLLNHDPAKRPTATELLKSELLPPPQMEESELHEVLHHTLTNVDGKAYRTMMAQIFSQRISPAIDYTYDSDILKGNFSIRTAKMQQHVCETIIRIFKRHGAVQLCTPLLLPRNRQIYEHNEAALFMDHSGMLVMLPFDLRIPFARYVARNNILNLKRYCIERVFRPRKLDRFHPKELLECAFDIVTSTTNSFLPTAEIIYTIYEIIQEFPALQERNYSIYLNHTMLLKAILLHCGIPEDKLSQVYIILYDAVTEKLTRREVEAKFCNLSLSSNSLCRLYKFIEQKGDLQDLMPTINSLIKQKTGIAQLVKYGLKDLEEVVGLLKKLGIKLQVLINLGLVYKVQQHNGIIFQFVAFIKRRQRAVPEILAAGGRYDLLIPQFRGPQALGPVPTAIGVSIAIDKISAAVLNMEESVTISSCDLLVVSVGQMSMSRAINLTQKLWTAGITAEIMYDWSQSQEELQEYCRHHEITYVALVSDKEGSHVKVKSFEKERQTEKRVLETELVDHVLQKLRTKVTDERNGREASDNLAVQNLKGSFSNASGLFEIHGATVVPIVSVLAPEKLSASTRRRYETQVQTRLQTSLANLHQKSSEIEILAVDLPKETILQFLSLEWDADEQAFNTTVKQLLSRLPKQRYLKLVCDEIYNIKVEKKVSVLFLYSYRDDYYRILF

Structure (SMILES)	pIC50 (GCN2)	pIC50 (SYK)
CC1(C)C(=O)Nc2cc(Nc3nc4c(N5CCC(F)(F)C5)nccn4n3)ccc21 [C105, 6-[8-(3,3-difluoro-pyrrolidin-1-yl)-[1,2,4]triazolo[1,5-a]pyrazin-2-ylamino]-3,3-dimethyl-1,3-dihydro-indol-2-one]	4.30 to 5.52	> 7.00
COc1cc(Nc2nc3c(N4CCNC(=O)C4)nccn3n2)cc(OC)c1 [C43, 4-[2-(3,5-dimethoxy-phenylamino)-[1,2,4]triazolo[1,5-a]pyrazin-8-yl]-piperazin-2-one]	4.30 to 5.52	5.52 to 6.52
Cn1cc(-c2nccn3nc(Nc4ccc5c(c4)CS(=O)(=O)N5)nc23)cn1 [C115, (2,2-dioxo-2,3-dihydro-1H-2I6-benzo[c]isothiazol-5-yl)-[8-(1-methyl-1H-pyrazol-4-yl)-[1,2,4]triazolo[1,5-a]pyrazin-2-yl]-amine]	4.30 to 5.52	6.52 to 7.00
COc1cc(Nc2nc3c(N4CCN(C(C)=O)CC4)nccn3n2)cc(OC)c1 [C51, 1-{4-[2-(3,5-dimethoxy-phenylamino)-[1,2,4]triazolo[1,5-a]pyrazin-8-yl]-piperazin-1-yl}-ethanone]	4.30 to 5.52	4.30 to 5.52
CC1(C)C(=O)Nc2cc(Nc3nc4c(N5CCC6(C5)NC(=O)NC6=O)nccn4n3)ccc21 (centres unmarked) [C108, 7-[2-(3,3-dimethyl-2-oxo-2,3-dihydro-1H-indol-6-ylamino)-[1,2,4]triazolo[1,5-a]pyrazin-8-yl]-1,3,7-triaza-spiro[4.4]nonane-2,4-dione]	4.30 to 5.52	> 7.00
Cn1cc(-c2nccn3nc(Nc4ccc5c(c4)NC(=O)C5(C)O)nc23)cn1 (centres unmarked) [C71, 3-hydroxy-3-methyl-6-[8-(1-methyl-1H-pyrazol-4-yl)-[1,2,4]triazolo[1,5-a]pyrazin-2-ylamino]-1,3-dihydro-indol-2-one]	5.52 to 6.52	6.52 to 7.00
Cn1cc(-c2nccn3nc(Nc4ccc5c(C(C)(O)C(F)(F)F)c[nH]c5c4)nc23)cn1 (centres unmarked) [C113, 1,1,1-trifluoro-2-{6-[8-(1-methyl-1H-pyrazol-4-yl)-[1,2,4]triazolo[1,5-a]pyrazin-2-ylamino]-1H-indol-3-yl}-propan-2-ol]	5.52 to 6.52	> 7.00
COc1cc(Nc2nc3c(N4CCN(C)CC4c4ccccc4)nccn3n2)cc(OC)c1 (centres unmarked) [C55, (3,5-dimethoxy-phenyl)-[8-(4-methyl-2-phenyl-piperazin-1-yl)-[1,2,4]triazolo[1,5-a]pyrazin-2-yl]-amine]	4.30 to 5.52	5.52 to 6.52
Cc1nc2cc(Nc3nc4c(-c5ccc(CN6CCOCC6)c(F)c5)nccn4n3)ccc2[nH]1 [C59, [8-(3-fluoro-4-morpholin-4-ylmethyl-phenyl)-[1,2,4]triazolo[1,5-a]pyrazin-2-yl]-(2-methyl-1H-benzoimidazol-5-yl)-amine]	5.52 to 6.52	4.30 to 5.52
Cn1cc(-c2nccn3nc(Nc4ccc([S+](C)[O-])cc4)nc23)cn1 (centres unmarked) [C32, (4-Methanesulfinyl-phenyl)-[8-(1-methyl-1H-pyrazol-4-yl)-[1,2,4]triazolo[1,5-a]pyrazin-2-yl]-amine]	4.30 to 5.52	5.52 to 6.52
COc1cc(Nc2nc3c(N4CCN(C(=O)CO)CC4)nccn3n2)cc(OC)c1 [C56, 1-{4-[2-(3,5-dimethoxy-phenylamino)-[1,2,4]triazolo[1,5-a]pyrazin-8-yl]-piperazin-1-yl}-2-hydroxy-ethanone]	4.30 to 5.52	5.52 to 6.52
O=C(c1ccc(-c2nccn3nc(Nc4ccc(N5CCOCC5)cc4)nc23)cc1)N1CCOCC1 [C41, morpholin-4-yl-{4-[2-(4-morpholin-4-yl-phenylamino)-[1,2,4]triazolo[1,5-a]pyrazin-8-yl]-phenyl}-methanone]	4.30 to 5.52	4.30 to 5.52
CN1c2ccc(Nc3nc4c(-c5cnn(C)c5)nccn4n3)cc2CS1(=O)=O [C117, (1-methyl-2,2-dioxo-2,3-dihydro-1H-2I6-benzo[c]isothiazol-5-yl)-[8-(1-methyl-1H-pyrazol-4-yl)-[1,2,4]triazolo[1,5-a]pyrazin-2-yl]-amine]	5.52 to 6.52	6.52 to 7.00
Cn1cc(-c2nccn3nc(Nc4ccc5cn[nH]c5c4)nc23)cn1 [C12, (1H-Indazol-6-yl)-[8-(1-methyl-1H-pyrazol-4-yl)-[1,2,4]triazolo[1,5-a]pyrazin-2-yl]-amine]	4.30 to 5.52	6.52 to 7.00
Cn1nnc2ccc(Nc3nc4c(-c5ccccc5-c5ccccc5)nccn4n3)cc21 [C29]	4.30 to 5.52	6.52 to 7.00
Cn1cc(-c2nccn3nc(Nc4ccc5nnn(C)c5c4)nc23)cn1 [C30, (3-Methyl-3H-benzotriazol-5-yl)-[8-(1-methyl-1H-pyrazol-4-yl)-[1,2,4]triazolo[1,5-a]pyrazin-2-yl]-amine]	5.52 to 6.52	5.52 to 6.52
Cn1cc(-c2nccn3nc(Nc4ccc5c(C(C)(C)O)n[nH]c5c4)nc23)cn1 [C72, 2-{6-[8-(1-methyl-1H-pyrazol-4-yl)-[1,2,4]triazolo[1,5-a]pyrazin-2-ylamino]-1H-indazol-3-yl}-propan-2-ol]	5.52 to 6.52	> 7.00

Structure (SMILES)	pIC50 (GCN2)	pIC50 (SYK)
Cn1cc(Nc2nc3c(-c4cnn(C)c4)nccn3n2)cn1 [C26, (1-Methyl-1H-pyrazol-4-yl)-[8-(1-methyl-1H-pyrazol-4-yl)-[1,2,4]triazolo[1,5-a]pyrazin-2-yl]-amine]	4.30 to 5.52	5.52 to 6.52
CC(C)C(O)c1n[nH]c2cc(Nc3nc4c(-c5cnn(C)c5)nccn4n3)ccc12 (centres unmarked) [C142, 2-methyl-1-{6-[8-(1-methyl-1H-pyrazol-4-yl)-[1,2,4]triazolo[1,5-a]pyrazin-2-ylamino]-1H-indazol-3-yl}-propan-1-ol]	5.52 to 6.52	6.52 to 7.00
CC1(C)C(=O)Nc2cc(Nc3nc4c(N5CCC[C@@H](N)C5)nccn4n3)ccc21 [C94, 6-[8-((R)-3-amino-piperidin-1-yl)-[1,2,4]triazolo[1,5-a]pyrazin-2-ylamino]-3,3-dimethyl-1,3-dihydro-indol-2-one]	4.30 to 5.52	> 7.00
Cn1cc(-c2nccn3nc(Nc4ccc5cc[nH]c5c4)nc23)cn1 [C111]	5.52 to 6.52	6.52 to 7.00
Cn1cc(-c2nccn3nc(Nc4ccc5c(c4)NC(=O)C5)nc23)cn1 [C60, 6-[8-(1-methyl-1H-pyrazol-4-yl)-[1,2,4]triazolo[1,5-a]pyrazin-2-ylamino]-1,3-dihydro-indol-2-one]	5.52 to 6.52	5.52 to 6.52
Cn1cc(-c2nccn3nc(Nc4cnn(C5CCNCC5)c4)nc23)cn1 [C28, [8-(1-Methyl-1H-pyrazol-4-yl)-[1,2,4]triazolo[1,5-a]pyrazin-2-yl]-(1-piperidin-4-yl-1H-pyrazol-4-yl)-amine hydrochloride]	5.52 to 6.52	4.30 to 5.52
COc1cc(Nc2nc3c(N4CCC(O)(CCO)CC4)nccn3n2)cc(OC)c1 [C49, 1-[2-(3,5-dimethoxy-phenylamino)-[1,2,4]triazolo[1,5-a]pyrazin-8-yl]-4-(2-hydroxy-ethyl)-piperidin-4-ol]	4.30 to 5.52	5.52 to 6.52
CC1(C)C(=O)Nc2cc(Nc3nc4c(-c5ccc(S(C)(=O)=O)cc5)nccn4n3)ccc21 [C70, 6-[8-(4-Methanesulfonyl-phenyl)-[1,2,4]triazolo[1,5-a]pyrazin-2-ylamino]-3,3-dimethyl-1,3-dihydro-indol-2-one]	5.52 to 6.52	6.52 to 7.00
CN(c1nccn2nc(Nc3ccc4c(c3)NC(=O)C4(C)C)nc12)C1CCCCC1 [C78, 6-[8-(cyclohexyl-methyl-amino)-[1,2,4]triazolo[1,5-a]pyrazin-2-ylamino]-3,3-dimethyl-1,3-dihydro-indol-2-one]	4.30 to 5.52	5.52 to 6.52
Cn1cc(-c2nccn3nc(Nc4ccc5cnn(C)c5c4)nc23)cn1 [C21, (1-Methyl-1H-indazol-6-yl)-[8-(1-methyl-1H-pyrazol-4-yl)-[1,2,4]triazolo[1,5-a]pyrazin-2-yl]-amine]	4.30 to 5.52	5.52 to 6.52
Cn1cc(-c2nccn3nc(Nc4ccc(C(C)(C)O)cc4)nc23)cn1 [C61, 2-{4-[8-(1-methyl-1H-pyrazol-4-yl)-[1,2,4]triazolo[1,5-a]pyrazin-2-ylamino]-phenyl}-propan-2-ol]	5.52 to 6.52	6.52 to 7.00
Cn1cc(-c2nccn3nc(Nc4ccc(S(C)(=O)=O)cc4)nc23)cn1 [C23, (4-Methanesulfonyl-phenyl)-[8-(1-methyl-1H-pyrazol-4-yl)-[1,2,4]triazolo[1,5-a]pyrazin-2-yl]-amine]	4.30 to 5.52	5.52 to 6.52
CC(C)C1(O)C(=O)Nc2cc(Nc3nc4c(-c5cnn(C)c5)nccn4n3)ccc21 (centres unmarked) [C82, 3-hydroxy-3-isopropyl-6-[8-(1-methyl-1H-pyrazol-4-yl)-[1,2,4]triazolo[1,5-a]pyrazin-2-ylamino]-1,3-dihydro-indol-2-one]	5.52 to 6.52	6.52 to 7.00
N#CC1(c2ccc(Nc3nc4c(-c5cn[nH]c5)nccn4n3)cc2)CC1 [C65, 1-{4-[8-(1H-pyrazol-4-yl)-[1,2,4]triazolo[1,5-a]pyrazin-2-ylamino]-phenyl}-cyclopropanecarbonitrile]	4.30 to 5.52	6.52 to 7.00
CC1(C)C(=O)Nc2cc(Nc3nc4c(N5CCc6nc(N)ncc6C5)nccn4n3)ccc21 [E56, 6-[8-(2-amino-7,8-dihydro-5H-pyrido[4,3-d]pyrimidin-6-yl)-[1,2,4]triazolo[1,5-a]pyrazin-2-ylamino]-3,3-dimethyl-1,3-dihydro-indol-2-one]	–	> 7.00
CC1(C)C(=O)Nc2cc(Nc3nc4c(N5CC[C@]6(CCNC6)C5)nccn4n3)ccc21 [E105, 6-[(S)-8-(2,7-diaza-spiro[4.4]non-2-yl)-[1,2,4]triazolo[1,5-a]pyrazin-2-ylamino]-3,3-dimethyl-1,3-dihydro-indol-2-one]	–	> 7.00
CC1(C)C(=O)Nc2cc(Nc3nc4c(N[C@H]5C[C@H](N)C5)nccn4n3)ccc21 [C97, 6-[8-(trans-3-amino-cyclobutylamino)-[1,2,4]triazolo[1,5-a]pyrazin-2-ylamino]-3,3-dimethyl-1,3-dihydro-indol-2-one]	–	5.52 to 6.52
